Experimental data from ChEMBL document CHEMBL1134446, “Polyamine analogue antidiarrheals: a structure-activity study” (J Med Chem, 2001).
Several values for one entry are separate records, joined by “and”; a condition that tells them apart may be missing. Equal values may be shown once.

What was measured:
[1] = system: Canis familiaris; experiment: Spermine Distribution in liver was determined after DESPM dosing of 1.87 mg/kg/day for 28 days in dog(cu dose-52.4) and sacrificed at 10 days PLD(cu dose-52.4 mg/kg); assay type: ADME, organism-based, Canis lupus familiaris; details: in vivo, 240 h
[2] = system: Canis familiaris; experiment: Spermidine Distribution in liver was determined after DESPM dosing of 1.87 mg/kg/day for 28 days in dog(cu dose-52.4) and sacrificed at 10 days PLD(cu dose-52.4 mg/kg); assay type: ADME, organism-based, Canis lupus familiaris; details: in vivo, 240 h
[3] = system: Canis familiaris; experiment: putrescine Distribution in liver was determined after DESPM dosing of 4 mg/kg/day for 13 days in dog(cu dose-52.4) and sacrificed at 10 days PLD(cu dose-52 mg/kg); assay type: ADME, organism-based, Canis lupus familiaris; details: in vivo, 240 h
[4] = system: Canis familiaris; experiment: putrescine Distribution in liver was determined after DESPM dosing of 8.0 mg/kg/day for 4.5 days in dog(cu dose-52.4) and sacrificed at 75 days PLD(cu dose-36 mg/kg); assay type: ADME, organism-based, Canis lupus familiaris; details: in vivo, 1800 h
[5] = system: Canis familiaris; experiment: Spermine Distribution in liver was determined after DESPM dosing of 6.0 mg/kg/day for 4.5 days in dog(cu dose-52.4) and sacrificed at 75 days PLD(cu dose-27 mg/kg); assay type: ADME, organism-based, Canis lupus familiaris; details: in vivo, 1800 h
[6] = system: Canis familiaris; experiment: Spermine Distribution in liver was determined after DESPM dosing of 8.0 mg/kg/day for 4.5 days in dog(cu dose-52.4) and sacrificed at 10 days PLD(cu dose-36 mg/kg); assay type: ADME, organism-based, Canis lupus familiaris; details: in vivo, 240 h
[7] = system: Canis familiaris; experiment: Spermine Distribution in liver was determined after DESPM dosing of 8.0 mg/kg/day for 4.5 days in dog(cu dose-52.4) and sacrificed at 75 days PLD(cu dose-36 mg/kg); assay type: ADME, organism-based, Canis lupus familiaris; details: in vivo, 1800 h
[8] = system: Canis familiaris; experiment: putrescine Distribution in kidney was determined after DESPM dosing of 1.87 mg/kg/day for 28 days in dog and sacrificed at 10 days PLD(cu dose-52.4 mg/kg); assay type: ADME, organism-based, Canis lupus familiaris; details: in vivo, 240 h
[9] = system: Canis familiaris; experiment: putrescine Distribution in kidney was determined after DESPM dosing of 1.87 mg/kg/day for 28 days in dog and sacrificed at 75 days PLD(cu dose-52.4 mg/kg); assay type: ADME, organism-based, Canis lupus familiaris; details: in vivo, 1800 h
[10] = system: Canis familiaris; experiment: putrescine Distribution in kidney was determined after DESPM dosing of 4.0 mg/kg/day for 13 days in dog and sacrificed at 10 days PLD(cu dose-52 mg/kg); assay type: ADME, organism-based, Canis lupus familiaris; details: in vivo, 240 h
[11] = system: Canis familiaris; experiment: Spermine Distribution in kidney was determined after DESPM dosing of 1.87 mg/kg/day for 28 days in dog(cu dose-52.4) and sacrificed at 10 days PLD(cu dose-52.4 mg/kg); assay type: ADME, organism-based, Canis lupus familiaris; details: in vivo, 240 h
[12] = system: Canis familiaris; experiment: Spermine Distribution in kidney was determined after DESPM dosing of 1.87 mg/kg/day for 28 days in dog(cu dose-52.4) and sacrificed at 75 days PLD(cu dose-52.4 mg/kg); assay type: ADME, organism-based, Canis lupus familiaris; details: in vivo, 1800 h
[13] = system: Canis familiaris; experiment: MESPM/MEHSPH Distribution in kidney was determined after DESPM dosing of 1.87 mg/kg/day for 28 days in dog(cu dose-52.4) and sacrificed at 75 days PLD(cu dose-52.4 mg/kg); assay type: ADME, organism-based, Canis lupus familiaris; details: in vivo, 1800 h
[14] = system: Canis familiaris; experiment: MESPM/MEHSPH Distribution in kidney was determined after DESPM dosing of 6.0 mg/kg/day for 4.5 days in dog(cu dose-52.4) and sacrificed at 10 days PLD(cu dose-27 mg/kg); assay type: ADME, organism-based, Canis lupus familiaris; details: in vivo, 240 h
[15] = system: Canis familiaris; experiment: MESPM/MEHSPH Distribution in liver was determined after DESPM dosing of 1.87 mg/kg/day for 28 days in dog(cu dose-52.4) and sacrificed at 75 days PLD(cu dose-52.4 mg/kg); assay type: ADME, organism-based, Canis lupus familiaris; details: in vivo, 1800 h
[16] = system: Rattus norvegicus; experiment: Weight loss of rat over the 6-h experimental period when a dose of 0 mg/kg (0 administered; assay type: functional
[17] = system: Rattus norvegicus; experiment: Percent reduction was determined by using the ratio of mean of treated animal to that of control animal at a dose of 47 mg/kg; assay type: functional
[18] = system: Rattus norvegicus; experiment: Percent reduction was determined by using the ratio of mean of treated animal to that of control animal at a dose of 9.4 mg/kg; assay type: functional
[19] = system: Canis familiaris; experiment: putrescine Distribution in liver was determined after DESPM dosing of 6.0 mg/kg/day for 4.5 days in dog(cu dose-52.4) and sacrificed at 75 days PLD(cu dose-27 mg/kg); assay type: ADME, organism-based, Canis lupus familiaris; details: in vivo, 1800 h
[20] = system: Canis familiaris; experiment: Spermine Distribution in liver was determined after DEHSPM dosing of 2.0 mg/kg/day for 29 days in dog(cu dose-52.4) and sacrificed at 10 days PLD(cu dose-22 mg/kg); assay type: ADME, organism-based, Canis lupus familiaris; details: in vivo, 240 h
[21] = system: Canis familiaris; experiment: Spermidine Distribution in liver was determined after DEHSPM dosing of 2.0 mg/kg/day […] in dog(cu dose-52.4) and sacrificed at 10 days PLD(cu dose-22 mg/kg); assay type: ADME, organism-based, Canis lupus familiaris; details: in vivo, 240 h
[22] = system: Canis familiaris; experiment: putrescine putrescine Distribution in kidney was determined after DEHSPM dosing of 2.0 mg/kg/day for 29 days in dog(cu dose-52.4) and sacrificed at 10 days PLD(cu dose-58 mg/kg); assay type: ADME, organism-based, Canis lupus familiaris; details: in vivo, 240 h
[23] = system: Canis familiaris; experiment: Spermidine Distribution in kidney was determined after DEHSPM dosing of 2.0 mg/kg/day […] in dog(cu dose-52.4) and sacrificed at 10 days PLD(cu dose-22 mg/kg); assay type: ADME, organism-based, Canis lupus familiaris; details: in vivo, 240 h
[24] = system: Canis familiaris; experiment: Distribution in kidney was determined after DESPM dosing of 8.0 mg/kg/day for 4.5 days in dog(cu dose-52.4) and sacrificed at 10 days PLD(cu dose-36 mg/kg); assay type: ADME, organism-based, Canis lupus familiaris; details: in vivo, 240 h
[25] = system: Canis familiaris; experiment: Distribution in liver was determined after DESPM dosing of 1.87 mg/kg/day for 28 days in dog(cu dose-52.4) and sacrificed at 75 days PLD(cu dose-52.4 mg/kg); assay type: ADME, organism-based, Canis lupus familiaris; details: in vivo, 1800 h
[26] = system: Canis familiaris; experiment: Distribution in liver was determined after DESPM dosing of 4 mg/kg/day for 13 days in dog(cu dose-52.4) and sacrificed at 75 days PLD(cu dose-52 mg/kg); assay type: ADME, organism-based, Canis lupus familiaris; details: in vivo, 1800 h
[27] = system: Canis familiaris; experiment: Distribution in liver was determined after DESPM dosing of 8.0 mg/kg/day for 4.5 days in dog(cu dose-52.4) and sacrificed at 10 days PLD(cu dose-36 mg/kg); assay type: ADME, organism-based, Canis lupus familiaris; details: in vivo, 240 h
[28] = system: Canis familiaris; experiment: HSPM Distribution in kidney was determined after DEHSPM dosing of 2.0 mg/kg/day for 29 days in dog(cu dose-52.4) and sacrificed at 10 days PLD(cu dose-22 mg/kg); assay type: ADME, organism-based, Canis lupus familiaris; details: in vivo, 240 h
[29] = system: Canis familiaris; experiment: MESPM/MEHSPH Distribution in kidney was determined after DEHSPM dosing of 2.0 mg/kg/day for 29 days in dog(cu dose-52.4) and sacrificed at 10 days PLD(cu dose-22 mg/kg); assay type: ADME, organism-based, Canis lupus familiaris; details: in vivo, 240 h
[30] = system: Canis familiaris; experiment: MESPM/MEHSPH Distribution in liver was determined after DEHSPM dosing of 2.0 mg/kg/day for 29 days in dog(cu dose-52.4) and sacrificed at 10 days PLD(cu dose-22 mg/kg); assay type: ADME, organism-based, Canis lupus familiaris; details: in vivo, 240 h
[31] = system: Canis familiaris; experiment: Distribution in kidney was determined after DESPM dosing of 4 mg/kg/day for 13 days in dog(cu dose-52.4) and sacrificed at 75 days PLD(cu dose-52 mg/kg); assay type: ADME, organism-based, Canis lupus familiaris; details: in vivo, 1800 h
[32] = system: Canis familiaris; experiment: Distribution in kidney was determined after DESPM dosing of 6.0 mg/kg/day for 4.5 days in dog(cu dose-52.4) and sacrificed at 10 days PLD(cu dose-27 mg/kg); assay type: ADME, organism-based, Canis lupus familiaris; details: in vivo, 240 h

## CCNCCCNCCCCNCCCNCC [BIS(ETHYL)SPERMINE]
[1]
  Wet weight of tissue: 850 nM/g
[2]
  Wet weight of tissue: 179 nM/g
[3]
  Wet weight of tissue: 82 nM/g
[4]
  Wet weight of tissue: 56 nM/g
[5]
  Wet weight of tissue: 992 nM/g
[6]
  Wet weight of tissue: 937 nM/g
[7]
  Wet weight of tissue: 1058 nM/g
[8]
  Wet weight of tissue: 0 nM/g
[9]
  Wet weight of tissue: 16 nM/g
[10]
  Wet weight of tissue: 12 nM/g
[11]
  Wet weight of tissue: 998 nM/g
[12]
  Wet weight of tissue: 540 nM/g
[13]
  Wet weight of tissue: 0 nM/g
[14]
  Wet weight of tissue: 10 nM/g
[15]
  Wet weight of tissue: 0 nM/g
[16]
  Weight loss: 11.9 g
[17]
  Reduction: 75% and 92%
[18]
  Reduction: 55% and 92%
[19]
  Wet weight of tissue: 101 nM/g

## CCNCCCCNCCCCNCCCCNCC [DIETHYLHOMOSPERMINE]
[20]
  Wet weight of tissue: 386 nM/g
[21]
  Wet weight of tissue: 68 nM/g
[22]
  Wet weight of tissue: 5 nM/g
[23]
  Wet weight of tissue: 68 nM/g
[24]
  Wet weight of tissue: 48 nM/g
[25]
  Wet weight of tissue: 0 nM/g
[26]
  Wet weight of tissue: 0 nM/g
[27]
  Wet weight of tissue: 29 nM/g
[28]
  Wet weight of tissue: 43 nM/g
[29]
  Wet weight of tissue: 3 nM/g
[30]
  Wet weight of tissue: 13 nM/g
[31]
  Wet weight of tissue: 0 nM/g
[32]
  Wet weight of tissue: 44 nM/g
